ChEMBL document CHEMBL1139644, “Pharmacophore-based design, synthesis, biological evaluation, and 3D-QSAR studies of aryl-piperazines as alpha(1)-adrenoceptor antagonists” (Bioorg Med Chem Lett, 2005)

Target: T1, Adrenergic receptor alpha-1 (Rattus norvegicus, UniProt P15823+P23944+P43140)
T1 sequence (P15823 whole entry): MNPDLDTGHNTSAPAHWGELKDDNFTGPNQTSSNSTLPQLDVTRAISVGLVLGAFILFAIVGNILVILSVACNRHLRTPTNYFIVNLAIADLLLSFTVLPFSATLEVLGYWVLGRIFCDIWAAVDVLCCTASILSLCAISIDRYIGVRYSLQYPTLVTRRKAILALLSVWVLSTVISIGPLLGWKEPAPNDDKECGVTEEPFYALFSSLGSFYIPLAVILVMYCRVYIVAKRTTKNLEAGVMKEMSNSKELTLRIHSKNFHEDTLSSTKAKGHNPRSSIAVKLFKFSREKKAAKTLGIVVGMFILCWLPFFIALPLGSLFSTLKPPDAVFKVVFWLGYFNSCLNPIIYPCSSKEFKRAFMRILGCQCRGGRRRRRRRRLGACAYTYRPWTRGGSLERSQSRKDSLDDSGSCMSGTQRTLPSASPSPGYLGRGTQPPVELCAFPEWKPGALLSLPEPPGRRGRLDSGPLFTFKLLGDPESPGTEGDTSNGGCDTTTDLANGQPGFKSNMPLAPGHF
T1 sequence (P23944 whole entry): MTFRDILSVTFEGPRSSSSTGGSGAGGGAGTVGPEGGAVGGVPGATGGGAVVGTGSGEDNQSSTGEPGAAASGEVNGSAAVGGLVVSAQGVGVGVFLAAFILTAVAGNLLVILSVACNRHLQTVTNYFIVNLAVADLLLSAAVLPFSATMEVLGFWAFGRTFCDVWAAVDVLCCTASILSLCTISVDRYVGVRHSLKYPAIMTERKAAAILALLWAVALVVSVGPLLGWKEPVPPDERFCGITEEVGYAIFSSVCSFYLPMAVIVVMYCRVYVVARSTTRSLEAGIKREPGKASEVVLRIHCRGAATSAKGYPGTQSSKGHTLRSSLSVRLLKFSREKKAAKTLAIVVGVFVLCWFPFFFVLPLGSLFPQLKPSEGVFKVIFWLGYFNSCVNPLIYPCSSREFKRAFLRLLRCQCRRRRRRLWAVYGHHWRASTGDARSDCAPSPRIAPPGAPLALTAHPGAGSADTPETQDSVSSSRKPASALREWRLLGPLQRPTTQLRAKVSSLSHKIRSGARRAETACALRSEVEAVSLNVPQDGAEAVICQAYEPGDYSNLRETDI
T1 sequence (P43140 whole entry): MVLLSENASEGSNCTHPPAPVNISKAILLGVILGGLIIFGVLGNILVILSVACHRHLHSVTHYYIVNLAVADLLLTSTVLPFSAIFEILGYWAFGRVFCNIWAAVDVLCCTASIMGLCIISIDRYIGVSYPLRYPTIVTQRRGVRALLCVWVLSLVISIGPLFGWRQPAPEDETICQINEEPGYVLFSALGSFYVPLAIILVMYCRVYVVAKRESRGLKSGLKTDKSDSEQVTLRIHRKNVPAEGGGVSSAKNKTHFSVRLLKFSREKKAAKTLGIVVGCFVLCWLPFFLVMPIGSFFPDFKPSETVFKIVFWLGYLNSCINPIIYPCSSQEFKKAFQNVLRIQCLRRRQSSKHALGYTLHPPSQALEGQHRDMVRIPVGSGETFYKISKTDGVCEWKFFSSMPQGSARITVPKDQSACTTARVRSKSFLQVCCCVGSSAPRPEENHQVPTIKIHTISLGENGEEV
Assay: Antagonistic activity for Alpha-1 adrenergic receptor was measured as inhibition of phenylephrine-[…] contractions in isolated Sprague-Dawley rat anacoccygeal muscles
Format: functional

Row | pA2 | Structure (SMILES)
1 | 9.12 | COc1ccccc1N1CCN(CCNC(=O)c2ccco2)CC1
2 | 7.72 | Cc1ccc(N2CCN(CCNC(=O)c3ccco3)CC2)c(C)c1
3 | 6.53 | Cc1ccc(N2CCN(CCNC(=O)c3cccnc3)CC2)cc1
4 | 8.56 | COc1cccc(N2CCN(CCNC(=O)c3ccco3)CC2)c1
5 | 7.85 | COc1ccc(N2CCN(CCNC(=O)c3ccco3)CC2)cc1
6 | 6.5 | Cc1ccc(N2CCN(CCNC(=O)c3ccncc3)CC2)cc1
7 | 7.71 | COc1ccccc1N1CCN(CCNC(=O)c2cc3ccccc3oc2=O)CC1
8 | 8.56 | COc1ccc(Cl)cc1N1CCN(CCNC(=O)c2ccco2)CC1
9 | 5.95 | COc1ccc(N2CCN(CCNC(=O)c3ccncc3)CC2)cc1
10 | 5.63 | COc1ccc(Cl)cc1N1CCN(CCNC(=O)c2cc3ccccc3o2)CC1
11 | 6.92 | Cc1ccc(N2CCN(CCNC(=O)c3cc4ccccc4o3)CC2)cc1
12 | 5.94 | Cc1ccc(N2CCN(CCNC(=O)c3cccnc3)CC2)c(C)c1
13 | 7.87 | COc1ccccc1N1CCN(CCNC(=O)c2cccnc2)CC1
14 | 7.36 | Cc1ccc(N2CCN(CCNC(=O)c3cc4ccccc4o3)CC2)c(C)c1
15 | 5.79 | COc1ccc(N2CCN(CCNC(=O)c3cccnc3)CC2)cc1
16 | 7.31 | COc1ccc(Cl)cc1N1CCN(CCNC(=O)c2cc3ccccc3oc2=O)CC1
17 | 6.47 | Cc1ccc(N2CCN(CCNC(=O)c3ccco3)CC2)cc1
18 | 7.18 | COc1ccc(Cl)cc1N1CCN(CCNC(=O)c2ccncc2)CC1
19 | 7.74 | COc1ccc(N2CCN(CCNC(=O)c3cc4ccccc4oc3=O)CC2)cc1
20 | 5.56 | COc1ccc(Cl)cc1N1CCN(CCNC(=O)c2cccnc2)CC1
21 | 7.07 | Cc1ccc(N2CCN(CCNC(=O)c3ccncc3)CC2)c(C)c1
